The results in this text go back to patent US11654138B2, “Therapeutic agents for treating and preventing autoimmune diseases and cancer and a screening method” (KING FAISAL UNIVERSITY, priority 2019, dated 2023).

One experiment has as its target T1, Pocket X-mutant Arid5a (Mus musculus, UniProt Q3U108, F56C/L84A/V134A/Y137A).
T1 construct: Flag; expressed in transfected cells; host or cells: HEK293T
T1 sequence (Q3U108 1-590 F56C/L84A/V134A/Y137A): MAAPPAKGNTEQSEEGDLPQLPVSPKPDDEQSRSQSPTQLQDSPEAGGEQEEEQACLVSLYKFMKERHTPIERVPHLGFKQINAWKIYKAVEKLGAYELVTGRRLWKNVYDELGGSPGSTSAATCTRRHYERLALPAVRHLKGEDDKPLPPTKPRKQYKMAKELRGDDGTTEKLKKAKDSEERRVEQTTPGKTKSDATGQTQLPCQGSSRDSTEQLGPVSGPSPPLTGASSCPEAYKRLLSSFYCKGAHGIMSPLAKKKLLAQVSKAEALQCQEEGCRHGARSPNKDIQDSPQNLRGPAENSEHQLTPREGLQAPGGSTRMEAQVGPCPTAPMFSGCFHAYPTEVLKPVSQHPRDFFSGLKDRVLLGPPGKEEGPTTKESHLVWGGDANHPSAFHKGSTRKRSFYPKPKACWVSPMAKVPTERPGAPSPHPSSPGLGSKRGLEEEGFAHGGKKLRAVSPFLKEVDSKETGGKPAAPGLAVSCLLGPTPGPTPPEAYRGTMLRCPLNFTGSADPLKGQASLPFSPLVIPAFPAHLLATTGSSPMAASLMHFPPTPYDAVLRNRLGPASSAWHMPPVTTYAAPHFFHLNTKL
The experiment in a line: Luciferase assay on Pocket X-mutant Arid5a (Phe56, Leu84, Val134, Tyr137 substitutions). The experiment is classed as cell-based. To be noted: 40 μM. From the text: Briefly, HEK293T cells were transfected with luciferase pGL-3 and empty pcDNA3.1 plasmids (Control), or pGL-3 plasmid encoding the 3′UTR of OX40, Il6 or Stat3, together with Arid5a-expressing pcDNA3.1 plasmid. Substitution mutations were introduced to the wild-type (WT) Arid5a at Phe56, Leu84, Val134 and Tyr137. Single point mutations were used to substitute Phe56 (TTC) with Cys (TGC) and Val134 (GTC) with Ala (GCC). Sequential point mutations were used to substitute Leu84 (CTG) with Ala (GCG) and Tyr137 (TAT) with Ala (GCT). Luciferase activity from cell lysates is shown relative to Control in FIGS. 2A-2C.

The test system of a further experiment is EAE. The experiment in a line: Experimental autoimmune encephalomyelitis (EAE) model of multiple sclerosis. The experiment is classed as in vivo, C57BL/6 female mice.
Another experiment deals with CIA. Put plainly: Collagen-induced arthritis (CIA) model. The experiment is classed as in vivo, C57BL mice.
The next experiment relates to IMQ-induced psoriasis. Put plainly: IMQ-induced psoriasis model. The experiment is classed as in vivo, male BALB/c mice. How it is done:
Experimental psoriasis was induced following a modified method described previously (Sun et al. 2013). To induce disease in male BALB/c mice (6-8 weeks; n=6), imiquimod (IMG; Sichuan Med-Shine Pharmaceutical) at 5% was applied topically at 20 mg/cm^2 on the inside of the right ear for 8 consecutive days. An evaluation system for assessment of erythema and thickness of the ear was developed. Erythema was assessed using a table with red […] (0-4) and ear thickness (0-4) measured using a digital caliber on days 2, 4, 6, and 8 after first IMQ application. The sum of the two parameters scores (ranging from 0-8) was used to indicate the overall clinical score. Treatment ointment was prepared by mixing 1 mg of DMSO-dissolved POE or its representative analogs including POE A2 or POE A3 with 20 gm of Vaseline Petroleum Jelly Original (vehicle, Unilever Inc.); the mixture was then incubated at room temperature overnight. From day 0 to day 8 the mice were treated topically with the treatment ointment (40 mg/cm^2) or Vaseline (IMQ/control). The mRNAs encoding Il6 and Il17a were isolated from whole biopsies of the ear (day 8) and reverse transcribed to make cDNA. The cDNA was then amplified by real-time PCR using TaqMan Gene Expression Assays (Mm00446190_ml, Mm00439618_ml, respectively; Applied Biosystems). The relative expression of mRNAs was calculated by the ΔΔCt method and presented relative to that of IMQ control mice.

The mark [1] stands for this setting: 0.5 mg i.p., day 24, vs corn oil, FIG. 5B.
Setting [2] is: topical ointment, day 8, FIG. 8B.

As for `O=C(CSc1nnc(-c2ccncc2)o1)c1ccccc1` [POE, 1-Phenyl-2-(5-pyridin-4-yl-[1,3,4]oxadiazol-2-ylsulfanyl)-ethanone], the “Inhibitory effect on stabilizing function of mutant Arid5a on OX40 3′UTR” value at Pocket X-mutant Arid5a (mutations at Phe56, Leu84, Val134, Tyr137, FIG. 2A) is listed as “abolish the inhibitory effects of POE”. Moreover, the “Inhibitory effect on stabilizing function of mutant Arid5a on Il6 3′UTR” value on Pocket X-mutant Arid5a (mutations at Phe56, Leu84, Val134, Tyr137, FIG. 2B) is recorded as “abolish the inhibitory effects of POE”. For the same compound, the “Inhibitory effect on stabilizing function of mutant Arid5a on Stat3 3′UTR” value at Pocket X-mutant Arid5a (mutations at Phe56, Leu84, Val134, Tyr137, FIG. 2C) is on record as “abolish the inhibitory effects of POE”. The EAE clinical scores entry in the experiment on EAE (0.5 mg i.p. per day, days 0-3, vs corn oil, FIG. 5A) is on record as “reduces EAE clinical scores”. For the same compound, in the experiment on EAE (setting [1]), the “Serum level of IL-6” value is “reduces serum levels of IL-6 and TNF-α”; the “Serum level of TNF-α” value is “reduces serum levels of IL-6 and TNF-α”. The “Expression of OX40 mRNA in CD4+ T cells isolated from the CNS” value in the experiment on EAE (10 days after disease induction, FIG. 5D) was “reduces the expression of OX40 mRNA”. For the same compound, in the experiment on EAE (10 days after disease induction, flow cytometry, FIG. 5E), the “Frequency of CD4+OX40+ T cells in the CNS” value is given as “reduces the frequency of CD4^+OX40^+ T cells”. Moreover, in the experiment with EAE (lymph node cells restimulated with MOG35-55 and IL-23 72 h, FIG. 5C), the “Level of IL-17 in culture supernatant of encephalitogenic CD4+ T cells on restimulation” value is listed as “reduces the level of IL-17”. Moreover, in the experiment on CIA (0.25 mg i.p. on days 0, 3, 6, 9, 12, 15, 18, vs corn oil, FIG. 7A), the CIA clinical scores entry is reported as “comparably reduced CIA clinical scores”. Further, the “Serum level of IL-6” value in the experiment on CIA (0.25 mg i.p., day 45, FIG. 7B) is given as “reduced serum levels of IL-6”. The “Frequency of CD4+IL-17+ cells in the secondary lymphoid organs” value with CIA (0.25 mg i.p., day 45, flow cytometry, FIG. 7C) is reported as “reduced the frequency of CD4^+IL-17^+ cells”. The “Clinical scores (erythema and thickness of the right ear)” value with IMQ-induced psoriasis (topical ointment 40 mg/cm^2 day 0 to 8, vs Vaseline, FIG. 8A) is “comparably reduced clinical scores”. In the experiment on IMQ-induced psoriasis (setting [2]), the “Il6 mRNA expression in whole biopsies of the right ear” value is on record as “suppressed mRNA expression” and the “Il17a mRNA expression in whole biopsies of the right ear” value is given as “suppressed mRNA expression”.
